The subject of one experiment is MCF7 cells. Nature of the experiment: alamarBlue MCF7 cell assay (antiproliferative/cytotoxicity). The experiment is classed as cell-based. To be noted: MCF7 human breast cancer cell line. Put shortly: (§1)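 Cells treated 5–6 days at 37 °C with compound, 10 μM top final concentration, 1:3 steps over 10 dilutions, in duplicate. alamarBlue then added for 8 h; fluorescence read at ex 530–560/em 590 nm, medium blank subtracted, EC50 fitted.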
Background: Alamar Blue is a resazurin reagent that responds to reducing activity.

Another experiment concerns the target T1, PI3Kalpha (Homo sapiens, UniProt P42336).
T1 construct: His (N); made in house; host or cells: SF9 insect cells (baculovirus co-infection)
Nature of the experiment: Inhibition of PI3Kalpha-induced PIP-2 phosphorylation (filter-binding assay, 33P-ATP). As to conditions: PI3 Kinase alpha (p85alpha/His-p110alpha), 1 μM ATP; read-out: IC50 PI3Kα. The class given is biochemical.

Another experiment has as its system BT474 cells. Nature of the experiment: alamarBlue BT474 cell assay (antiproliferative/cytotoxicity). The experiment is classed as cell-based. As to conditions: BT-474 human breast cancer cell line, 5-6 days incubation. In short, it runs like this: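 EC50 values reflect antiproliferative or cytotoxic effect, taken from fluorometric alamarBlue signal (excitation 530-560 nm, emission 590 nm) corrected for a medium blank. Exposure lasted 5-6 days at concentrations up to 10 μM final.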

For a further experiment, the system named is U87 cells. Nature of the experiment: alamarBlue U87 cell assay (antiproliferative/cytotoxicity). The experiment is classed as cell-based. As to conditions: U-87MG human glioblastoma cells. Put shortly: as §1
The subject of the next experiment is H460 cells. Nature of the experiment: alamarBlue H460 cell assay (antiproliferative/cytotoxicity). As to conditions: NCI-H460; H460 human lung carcinoma cells. The class given is cell-based. Put shortly:
as §1

The test system of another experiment is MB453 cells. Nature of the experiment: alamarBlue MB453 cell assay (antiproliferative/cytotoxicity). The experiment is classed as cell-based. As to conditions: Homo sapiens; MDA MB 453 breast cancer cell line. In short, it runs like this:
as §1

T1 sequence (P27986 whole entry): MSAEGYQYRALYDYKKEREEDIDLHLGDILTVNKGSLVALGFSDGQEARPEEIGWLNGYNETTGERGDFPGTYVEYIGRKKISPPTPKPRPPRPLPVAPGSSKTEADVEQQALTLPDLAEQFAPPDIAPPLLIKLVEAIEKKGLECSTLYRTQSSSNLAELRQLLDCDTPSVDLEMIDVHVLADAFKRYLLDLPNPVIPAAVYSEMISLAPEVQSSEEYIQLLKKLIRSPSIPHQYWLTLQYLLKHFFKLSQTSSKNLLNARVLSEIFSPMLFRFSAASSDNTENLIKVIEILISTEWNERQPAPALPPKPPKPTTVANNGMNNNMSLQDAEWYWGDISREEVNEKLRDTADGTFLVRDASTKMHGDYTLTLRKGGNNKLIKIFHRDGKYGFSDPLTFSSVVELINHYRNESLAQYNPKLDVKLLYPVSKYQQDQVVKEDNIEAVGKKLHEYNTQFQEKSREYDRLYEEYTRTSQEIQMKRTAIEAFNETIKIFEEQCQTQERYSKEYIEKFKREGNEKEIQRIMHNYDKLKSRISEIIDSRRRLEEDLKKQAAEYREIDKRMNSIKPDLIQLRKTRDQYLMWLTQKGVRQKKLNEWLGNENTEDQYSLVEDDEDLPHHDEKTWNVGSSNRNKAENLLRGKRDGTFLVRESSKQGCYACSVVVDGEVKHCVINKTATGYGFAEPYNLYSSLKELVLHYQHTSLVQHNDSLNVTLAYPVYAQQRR
T1 sequence (P42336 whole entry): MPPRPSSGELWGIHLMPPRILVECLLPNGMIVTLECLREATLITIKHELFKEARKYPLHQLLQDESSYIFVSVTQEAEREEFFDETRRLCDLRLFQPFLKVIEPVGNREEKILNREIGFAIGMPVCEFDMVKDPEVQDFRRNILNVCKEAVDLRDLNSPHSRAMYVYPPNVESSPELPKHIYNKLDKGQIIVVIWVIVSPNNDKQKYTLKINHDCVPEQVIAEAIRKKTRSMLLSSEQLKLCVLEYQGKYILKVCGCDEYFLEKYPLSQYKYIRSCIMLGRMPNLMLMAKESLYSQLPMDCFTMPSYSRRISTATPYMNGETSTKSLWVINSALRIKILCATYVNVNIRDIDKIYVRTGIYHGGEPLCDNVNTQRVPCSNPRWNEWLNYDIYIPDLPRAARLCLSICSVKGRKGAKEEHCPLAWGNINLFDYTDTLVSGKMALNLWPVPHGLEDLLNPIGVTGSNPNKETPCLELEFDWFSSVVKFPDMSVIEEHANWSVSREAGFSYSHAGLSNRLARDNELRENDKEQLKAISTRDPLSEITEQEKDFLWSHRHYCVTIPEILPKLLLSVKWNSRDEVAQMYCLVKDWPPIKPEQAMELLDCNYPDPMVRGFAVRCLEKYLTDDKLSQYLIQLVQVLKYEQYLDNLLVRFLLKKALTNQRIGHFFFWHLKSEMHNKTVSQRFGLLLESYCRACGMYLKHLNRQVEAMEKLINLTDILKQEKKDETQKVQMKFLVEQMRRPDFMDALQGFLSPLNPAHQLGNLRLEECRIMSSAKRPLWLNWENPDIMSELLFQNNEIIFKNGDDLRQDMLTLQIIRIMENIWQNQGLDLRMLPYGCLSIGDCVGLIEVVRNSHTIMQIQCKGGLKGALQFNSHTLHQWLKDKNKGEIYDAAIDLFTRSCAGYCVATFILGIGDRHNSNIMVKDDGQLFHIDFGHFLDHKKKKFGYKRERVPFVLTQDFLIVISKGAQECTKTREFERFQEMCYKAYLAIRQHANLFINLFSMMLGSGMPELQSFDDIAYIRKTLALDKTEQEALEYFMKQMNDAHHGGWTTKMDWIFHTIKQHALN

Turning to `CCc1ncnc(-c2ccnc(C)c2)c1C#Cc1cnc(C)c(NS(=O)(=O)c2ccc(CNC(C)=O)cc2)c1` [Example 94, N-(4-{5-[4-Ethyl-6-(2-methyl-pyridin-4-yl)-pyrimidin-5-ylethynyl]-2-methyl-pyridin-3-ylsulfamoyl}-benzyl)-acetamide], the EC50 in the experiment with MCF7 cells amounted to 580 nM; with BT474 cells it was 644 nM; with U87 cells, 2320 nM; in the experiment on H460 cells it was 2580 nM; in the experiment with MB453 cells, 514 nM. The IC50 at PI3Kalpha is 1 nM.
As to `Cc1cc(-c2ncnc(C)c2C#Cc2cncc(NS(C)(=O)=O)c2)ccn1` [Example 95, N-{5-[4-Methyl-6-(2-methyl-pyridin-4-yl)-pyrimidin-5-ylethynyl]-pyridin-3-yl}-methanesulfonamide], the EC50 with MCF7 cells is 407 nM; in the experiment with BT474 cells it was 1650 nM; in the experiment with U87 cells it was 391 nM; in the experiment with H460 cells, 2020 nM; with MB453 cells it was 483 nM. The IC50 at PI3Kalpha was found to be 2 nM.

For orientation: EC50 means the concentration giving half of the maximal effect. Broadly, the IC50 is the concentration that gives 50% inhibition.

These data come from patent publication US8466162B2, “5-alkynyl-pyridines” (Boehringer Ingelheim International GmbH, priority 2011, dated 2013).
